This note sets out measurements from patent US10822333B2, “Pyridopyrimidines derivatives compounds” (BIOLAB SANUS FARMACEUTICA LTDA, priority 2014, dated 2020).

Molecules are shown by their SMILES. Where “and” joins values, the source holds several entries; their conditions need not be identical. Equal values may be shown once.

In data set [1] the target is T1, Guanylate Cyclase-C (Homo sapiens, UniProt P25092).
T1 construct: host or cells: T84 cells
Kind of data set: Stimulation of guanylate cyclase-C induced by the toxin STa in T84 cells (cGMP accumulation). Format: cell-based. To be noted: for inhibition at 50 µM: T84, test compound 50 μM vs STa (1 μM) group, read-out: % of inhibition (Compound x STa); for cGMP, pmol/10 min/mg: test compound 50 μM, 10 min pre-incubation, then STa 1 μM for 10 min, T84 cells, mean ± SEM. As for the experimental part: Protocol for the Stimulation of Guanylate Cyclase-C Induced by the Toxin STa in T84 Cells
Cells from the T84 line (ATCC CCL-248) are subculture according to supplier's instructions. Briefly, after washing the culture flask (75 cm^2) using 3 mL of 0.25% Trypsin solution (w/v) and 0.53 mM EDTA solution to remove the traces of serum, the same volume of trypsin is added to each bottle, and cells are observed under a microscope until detachment of the cellular layer (usually 8-10 minutes).
Preparation of assay plates (12-well plates) follows after adding 8 mL of culture medium (DMEM-F12 supplemented with 10% fetal bovine serum and penicillin-streptomycin (50 IU/mL:50 μg/mL) and centrifugation of the cell homogenate at 2000 rpm for 5 minutes (at 25° C.).
With the aid of a 1 mL pipet connected to a vacuum pump, the supernatant is aspirated and the cells resuspended with culture medium (with necessary volume to maintain the ratio of 1:4, i.e. 1 culture flask originates 4 12-well plates). After homogenization of the cells, with an aid of a pipette, it is added 2 mL of the cell suspension to each well of the plate. The growth occurs in an incubator under controlled conditions (37° C., 5% CO2 atmosphere) until confluence of each well (typically 8-10 days).
Initially, the culture medium is aspirated using a 1 mL pipette connected to a vacuum pump and the cells are washed at least 3 times with 0.5 mL of a Dulbecco Phosphate Buffered Saline (DPBS; 37° C.) using a 1 mL pipette attached to one the vacuum pump. In the sequence, 0.5 mL of DPBS is added in the presence and/or absence of 1-metil-3-isobutyl xanthine (1 mM), dimethylsulfoxide (0.1% v/v) and the test compound and incubated for 10 minutes in an oven (37° C., 5% CO2 atmosphere).
After the incubation period, the cells are stimulated with STa toxin (1 μM, 5 μL) and incubated in an incubator (37° C., 5% CO2 atmosphere) for 10 minutes. After the stimulation period, the volume of the supernatant is aspirated using a 1 mL pipette connected to a vacuum pump and the cGMP is extracted by the addition of a hydrochloric acid solution 0.1 M (0.3 mL, using a pipette), pH 4, under constant stirring (speed 4) in a shaker type “rotator” (Lab-line Instruments, model number 4625), for 20 minutes. After the extraction period, the volume of each well is centrifuged (15000 rpm, 5 minutes, 25° C.) and an aliquot of the supernatant (0.3 mL) is quickly stored in a freezer at −20° C. for the subsequent quantification of the content of cGMP by the immunoassay method developed and described by HORTON et al. (1992) [Horton, J. K.; Martin, R. C.; Kalinka, S.; Cushing, A.; Kitcher, J. P.; O'Sullivan, M. J.; Baxendale, P. M., “Enzime immunoassays for the estimation of adenosine 3′,5′ cyclic monophosphate and guanosine 3′,5′ cyclic monophosphate in biological fluids”. J Immunol Methods 1992, 155:31-40].
The protein precipitate or “pellets” are digested directly by the addition of 0.5 mL of a 0.1 M sodium hydroxide solution, under constant agitation in a shaker type “rotator” (speed 7), for 30 minutes. Posteriorly, this protein fraction is used in the tests to determine proteins, employing a method developed by BRADFORD (1976). [M. M. BRADFORD, “A rapid and sensitive method for the quantitation of microgram quantities of protein utilizing the principle of protein-dye binding”. Analytical Biochemistry, 1976, 72:248-254].

Data set [2] in a line: Determination of absolute bioavailability in Beagle dogs (oral vs intravenous, plasma LC-MS/MS). Format: in vivo. To be noted: dog, male Beagle dogs, oral powder in capsules 3 mg/kg vs intravenous bolus 1, 3 and 10 mg/kg. From the text: Protocol for Determination of Absolute Bioavailability
The study used male Beagle dogs, aged between 2 to 4 years old, weighing between 8 to 12 kg, and kept in food control and disposal of water ad libitum during the study.
The dogs were shaving in the radial portion of the front paws, performing aseptic on site with the aid of moistened gauze with 70% alcohol.
Entered the 21G catheter (one in each paw in the intravenous administration protocol and a single paw in the oral administration protocol) in order to access the cephalic vein.
The blood samples were collected from animals depending on the established sampling times by taking 1.5 mL of blood using a 3 mL syringe. The samples were transferred to heparinized tube collection.
c) Route of Administration
The administration of the study compounds was made orally and intravenously.
The intravenous administration of the compounds was carried out in bolus, and has through one of the cephalic veins of dogs. Concentrations were administered 1 mg/kg; 3 mg/kg and 10 mg/kg in one, on different days.
The oral administration of the drug was provided as a powder in capsules at the dose of 3 mg/kg, which were all completely ingested by dogs.
For the intravenous administration, the blood samples (1.5 ml) were collected in the following predetermined time intervals: 0, 0.033, 0.083, 0.17, 0.25, 0.33, 0 5; 1; 2; 3; 4; 6; 8; 12 and 24 hours.
For the oral administration, the blood samples (1.5 ml) were collected in the following predetermined time intervals: 0, 0.33, 0.67, 1, 1.5, 2, 3, 4, and 6, 8, 12 and 24 hours.
The compounds tested are II, IV, VI, and XI; described in TABLE 1.
The heparinized tubes collections were placed in a centrifuge and were processed for 10 minutes at 2500 rpm per minute. The plasma was separated and put into other tubes. The plasma was analyzed by Liquid chromatography-tandem mass spectrometry (LC-MS/MS).

T1 sequence (P25092 24-1073): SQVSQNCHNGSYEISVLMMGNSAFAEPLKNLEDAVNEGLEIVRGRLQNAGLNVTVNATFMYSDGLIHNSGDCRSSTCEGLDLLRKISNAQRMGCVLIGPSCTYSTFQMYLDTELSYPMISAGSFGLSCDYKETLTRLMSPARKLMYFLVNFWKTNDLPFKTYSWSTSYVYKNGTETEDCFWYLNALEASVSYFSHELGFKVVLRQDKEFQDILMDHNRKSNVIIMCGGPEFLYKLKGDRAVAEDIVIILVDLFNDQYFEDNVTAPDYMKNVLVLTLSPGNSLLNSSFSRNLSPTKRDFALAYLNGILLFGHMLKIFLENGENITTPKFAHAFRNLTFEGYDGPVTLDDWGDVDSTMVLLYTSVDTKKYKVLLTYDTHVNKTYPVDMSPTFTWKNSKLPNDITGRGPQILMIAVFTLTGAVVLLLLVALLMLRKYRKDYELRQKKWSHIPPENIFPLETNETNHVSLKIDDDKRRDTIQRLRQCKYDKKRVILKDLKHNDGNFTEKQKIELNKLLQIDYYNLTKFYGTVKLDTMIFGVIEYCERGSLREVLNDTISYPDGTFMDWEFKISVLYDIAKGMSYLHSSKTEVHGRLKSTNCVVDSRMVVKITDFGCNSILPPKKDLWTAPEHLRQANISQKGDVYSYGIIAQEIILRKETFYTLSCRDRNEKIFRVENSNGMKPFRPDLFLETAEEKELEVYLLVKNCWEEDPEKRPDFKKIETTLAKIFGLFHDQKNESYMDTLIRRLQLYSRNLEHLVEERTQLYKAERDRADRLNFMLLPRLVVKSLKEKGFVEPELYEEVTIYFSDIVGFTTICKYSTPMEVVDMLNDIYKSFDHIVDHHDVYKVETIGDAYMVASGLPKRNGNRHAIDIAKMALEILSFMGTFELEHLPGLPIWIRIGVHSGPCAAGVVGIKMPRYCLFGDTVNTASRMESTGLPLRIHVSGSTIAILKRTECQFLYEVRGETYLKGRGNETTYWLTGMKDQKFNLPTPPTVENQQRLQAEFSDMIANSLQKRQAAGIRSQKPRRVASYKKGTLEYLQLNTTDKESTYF

In the case of `Cn1c2c(c(=O)n(C)c1=O)C(c1cccc3c1OCO3)C1=C(N2)c2ccccc2C1=O` (stereo not shown) [Compound VII, 5-(1,3-benzodioxol-4-yl)-1,3-dimethyl-5,11-dihydro-1H-indeno-[2′,1′:5,6]pyrido[2,3-d]pyrimidine-2,4,6-trione], the inhibition at 50 µM in data set [1] (cGMP accumulation in T84 cells) was roughly 12%. Moreover, the “cGMP, pmol/10 min/mg” value in data set [1] is 297.30 ± 39.06 pmol/10 min/mg.
For the molecule `Cn1c2c(c(=O)n(C)c1=S)C(c1cc(F)cc(C(F)(F)F)c1)C1=C(N2)c2ccccc2C1=O` (stereo not shown) [Compound III, 5-(3-fluoro-5-trifluoromethylphenyl)-1,3-dimethyl-5,11-dihydro-1H-indeno-[2′,1′:5,6]pyrido[2,3-d]pyrimidine-2-thioxo-4,6-dione], the melting point stood at 313 °C. The inhibition at 50 µM in data set [1] (cGMP accumulation in T84 cells) is roughly 64%. The “cGMP, pmol/10 min/mg” value in data set [1] came out at 201.50 ± 44.93 pmol/10 min/mg.
As to `Cn1c2c(c(=O)n(C)c1=O)C(c1ccc3nsnc3c1)C1=C(N2)c2ccccc2C1=O` (stereo not shown) [Compound XI, 5-(2,1,3-benzothiadiazol-5-yl)-1,3-dimethyl-5,11-dihydro-1H-indeno-[2′,1′:5,6]pyrido[2,3-d]pyrimidine-2,4,6-trione], the inhibition at 50 µM in data set [1] (cGMP accumulation in T84 cells) was roughly 70%. For the same molecule, the “cGMP, pmol/10 min/mg” value in data set [1] is on record as 171.30 ± 31.68 pmol/10 min/mg. Also, the bioavailability in data set [2] is 0.35%.
Molecule `Cn1c2c(c(=O)n(C)c1=S)C(c1cc(C(F)(F)F)cc(C(F)(F)F)c1)C1=C(N2)c2ccccc2C1=O` (stereo not shown) [Compound V, 5-(3,5-bistrifluoromethylphenyl)-1,3-dimethyl-5,11-dihydro-1H-indeno-[2′,1′:5,6]pyrido[2,3-d]pyrimidine-2-thioxo-4,6-dione] showed a melting point of 314 °C. Further, the inhibition at 50 µM in data set [1] (cGMP accumulation in T84 cells) is roughly 62%.
In the case of `Cn1c2c(c(=O)n(C)c1=O)C(c1cccc3nsnc13)C1=C(N2)c2ccccc2C1=O` (stereo not shown) [Compound X, 5-(2,1,3-benzothiadiazol-4-yl)-1,3-dimethyl-5,11-dihydro-1H-indeno-[2′,1′:5,6]pyrido[2,3-d]pyrimidine-2,4,6-trione], the inhibition at 50 µM in data set [1] (cGMP accumulation in T84 cells) is roughly 36%. Besides, the “cGMP, pmol/10 min/mg” value in data set [1] is on record as 668.40 ± 75.46 pmol/10 min/mg.
Turning to `Cn1c2c(c(=O)n(C)c1=O)C(c1ccc3c(c1)OCO3)C1=C(N2)c2ccccc2C1=O` (stereo not shown) [Compound IX, 5-(1,3-benzodioxol-5-yl)-1,3-dimethyl-5,11-dihydro-1H-indeno-[2′,1′:5,6]pyrido[2,3-d]pyrimidine-2,4,6-trione], in data set [1], the “cGMP, pmol/10 min/mg” value turned out to be 703.50 ± 43.11 pmol/10 min/mg.
Turning to `Cn1c2c(c(=O)n(C)c1=O)C(c1cc(C(F)(F)F)cc(C(F)(F)F)c1)C1=C(N2)c2ccccc2C1=O` (stereo not shown) [FPIPP, reference compound], in data set [1] (cGMP accumulation in T84 cells), the inhibition at 50 µM is roughly 94%. In data set [1] (test compound 50 μM vs STa (1 μM) group, cGMP accumulation in T84 cells), the “% of inhibition (Compound x STa)” value is ~86% and ~83% and ~87%. In addition, the “cGMP, pmol/10 min/mg” value in data set [1] is 53.53 ± 6.22 pmol/10 min/mg and 74.83 ± 13.26 pmol/10 min/mg and 56.25 ± 13.61 pmol/10 min/mg and 81.00 ± 14.38 pmol/10 min/mg.
With `Cn1c2c(c(=O)n(C)c1=S)C(c1csc(C(F)(F)F)c1)C1=C(N2)c2ccccc2C1=O` (stereo not shown) [Compound II], the melting point was determined as 178 °C. The inhibition at 50 µM in data set [1] (cGMP accumulation in T84 cells) is roughly 94%. Besides, the “cGMP, pmol/10 min/mg” value in data set [1] worked out at 57.50 ± 3.16 pmol/10 min/mg. This molecule also came in with a bioavailability in data set [2] of 0.16%.
For `CCn1c2c(c(=O)n(C)c1=O)C(c1cc(C(F)(F)F)cc(C(F)(F)F)c1)C1=C(N2)c2ccccc2C1=O` (stereo not shown) [Compound VI, 5-(3,5-bistrifluoromethylphenyl)-1-ethyl-3-methyl-5,11-dihydro-1H-indeno-[2′,1′:5,6]pyrido[2,3-d]pyrimidine-2,4,6-trione], in that order: 166 °C, roughly 97%, 22.83 ± 3.30 pmol/10 min/mg and 0.82%.
In the case of `Cn1c2c(c(=O)n(C)c1=S)C(c1cccc3c1OCO3)C1=C(N2)c2ccccc2C1=O` (stereo not shown) [Compound VIII, 5-(1,3-benzodioxol-4-yl)-1,3-dimethyl-5,11-dihydro-1H-indeno-[2′,1′:5,6]pyrido[2,3-d]pyrimidine-2-thioxo-4,6-dione], the melting point is 310 °C. The inhibition at 50 µM in data set [1] (cGMP accumulation in T84 cells) was roughly 66%. For the same molecule, the “cGMP, pmol/10 min/mg” value in data set [1] was 350.70 ± 35.80 pmol/10 min/mg.
For `Cn1c2c(c(=O)n(C)c1=S)C(c1ccc3nsnc3c1)C1=C(N2)c2ccccc2C1=O` (stereo not shown) [Compound XII, 5-(2,1,3-benzothiadiazol-5-yl)-1,3-dimethyl-5,11-dihydro-1H-indeno-[2′,1′:5,6]pyrido[2,3-d]pyrimidine-2-thioxo-4,6-dione], in that order: 362 °C, roughly 64% and 201.50 ± 23.51 pmol/10 min/mg.
On the same counts, the results for `Cn1c2c(c(=O)n(C)c1=O)C(c1csc(C(F)(F)F)c1)C1=C(N2)c2ccccc2C1=O` (stereo not shown) [Compound I] are 265 °C, roughly 62% and 210.70 ± 6.11 pmol/10 min/mg.
Molecule `CCn1c2c(c(=O)n(C)c1=O)C(c1cc(F)cc(C(F)(F)F)c1)C1=C(N2)c2ccccc2C1=O` (stereo not shown) [Compound IV, 5-(3-fluoro-5-trifluoromethylphenyl)-1-ethyl-3-methyl-5,11-dihydro-1H-indeno-[2′,1′:5,6]pyrido[2,3-d]pyrimidine-2,4,6-trione] displayed a melting point of 177 °C. For the same molecule, in data set [1] (cGMP accumulation in T84 cells), the inhibition at 50 µM was roughly 86%. The “cGMP, pmol/10 min/mg” value in data set [1] stood at 146.80 ± 22.94 pmol/10 min/mg. In data set [2], this molecule displayed a bioavailability of 0.17%.

For orientation: inhibition means the percentage by which the read-out fell short of the control. Usually melting point stands for the temperature, or range, at which the solid turns liquid. In general, bioavailability refers to the share of a dose that reaches the circulation, judged against a reference dose that is usually intravenous.
